Read-outs that look alike come from different tables or passages of the source.
What was measured:
[1] = target: T1, HIV protease (Human immunodeficiency virus type 1 group M subtype B, UniProt P04585); assay: biochemical; parameters: species or system HIV-1
T1 construct: plasmid containing HIV protease under the control of an inducible T7 promoter; made in house; host or cells: E. coli (inclusion bodies, T7 promoter)
Description: HIV Protease Inhibition Assay—Spectroscopic Method
Inclusion bodies were solubilized in 8M urea, 50 mM tris pH 8.0. Protease activity was recovered by dilution 20-fold into buffer containing 50 mM sodium acetate pH 5.5, 1 mM EDTA, 10% glycerol and 5% ethylene glycol. Enzyme was used at a final concentration of 1.0-10 ug/ml.
Stock solutions of 10 mM were prepared in DMSO.
All further dilutions were done in DMSO.

[2] = target: single-chain tethered dimer of HIV protease (Human immunodeficiency virus 1, UniProt P04585); assay: biochemical; assay type: biochemical; parameters: fused on or other part: A second copy of the same protease unit is joined to the first by a short peptide tether, giving one polypeptide
[3] = test system: HIV-1 (RF) in MT-2 cells; assay: microbe, parasite or virus in culture; assay type: cell-based; conditions: read-out: IC90
How it was run: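 Read-out: gag and pol viral RNA captured by 5′-biotinylated oligonucleotides on streptavidin-coated wells, detected with alkaline phosphatase-linked reporter oligonucleotides, calibrated against BH10 in vitro transcripts. Virus stocks (RF, MN, IIIB) come from H9 cultures; MT-2 host cells kept in RPMI 1640, 5% FCS.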

[4] = read-out: HPLC K1, Table 2d, class symbols
[5] = Human immunodeficiency virus 1, MT2, 48 h, Table 2d, class symbols
[6] = read-out: HPLC K1, Table 2d, HIV protease inhibition, HPLC method
[7] = Human immunodeficiency virus 1, MT2, 48 h, Table 2d, HIV RNA assay

O=C1N(CCCc2ccccc2)C(Cc2ccccc2)C(O)C(O)C(Cc2ccccc2)N1CCCc1ccccc1 (stereo not drawn) [Example 1AS]
Ki ([1]; Table 1a, read-out: Ki): 10 to 1000 nM

CC(C)CN1C(=O)N(CC(C)C)C(Cc2ccccc2)C(O)C(O)C1Cc1ccccc1 (stereo not drawn) [Example 1AO]
Ki ([1]; Table 1a, read-out: Ki): 10 to 1000 nM

O=C1N(CC=Cc2ccccc2)C(Cc2ccccc2)C(O)C(O)C(Cc2ccccc2)N1CC=Cc1ccccc1 (stereo not drawn) [Example 1AU]
Ki ([1]; Table 1a, read-out: Ki): < 10 nM

O=C1N(Cc2cccc(OCc3ccccc3)c2)C(Cc2ccccc2)C(O)C(C(F)Cc2ccccc2)N1Cc1cccc(OCc2ccccc2)c1 (stereo not drawn) [Example 8E]
Ki ([1]; Table 1e, read-out: Ki): 10 to 1000 nM

C=CCN1C(=O)N(CC=C)[C@H](Cc2ccccc2)[C@@H](O)[C@H](O)[C@H]1Cc1ccccc1 [Example 1G]
Ki ([1]; Ki, Table 1a): 10 to 1000 nM

O=C1N(Cc2ccccc2)C(Cc2ccccc2)C(O)C(O)C(Cc2ccccc2)N1Cc1ccccc1 (stereo not drawn) [Example 1I]
Ki ([1]; Ki): > 1000 nM

O=C1N(Cc2cccc(O)c2)C(Cc2ccccc2)C(O)C(Cc2ccccc2)N1Cc1cccc(O)c1 (stereo not drawn) [Example 22A]
Ki ([1]; Table 2k, read-out: Ki): 10 to 1000 nM

CN1C(=O)N(Cc2ccccc2)C(Cc2ccccc2)C(O)C(O)C1Cc1ccccc1 (stereo not drawn) [Example 1AY]
Ki ([1]; Table 1a, read-out: Ki): 10 to 1000 nM

O=C1NC(Cc2ccccc2)C(O)C(O)C(Cc2ccccc2)N1 (stereo not drawn) [Example 1E]
Ki ([1]; Table 1a, read-out: Ki): > 1000 nM

CCCN1C(=O)N(CCC)C(Cc2ccccc2)C(O)C(O)C1Cc1ccccc1 (stereo not drawn) [Example 1V]
Ki ([1]; Ki): < 10 nM

O=C1N(Cc2ccccn2)C(Cc2ccccc2)C(O)C(O)C(Cc2ccccc2)N1Cc1ccccn1 (stereo not drawn) [Example 1AR]
Ki ([1]; Ki): 10 to 1000 nM

O=C1N(Cc2ccncc2)C(Cc2ccccc2)C(O)C(O)C(Cc2ccccc2)N1Cc1ccncc1 (stereo not drawn) [Example 1AI]
Ki ([1]; Table 1a, read-out: Ki): 10 to 1000 nM

CC(C)=CCN1C(=O)N(C)C(Cc2ccccc2)C(O)C(O)C1Cc1ccccc1 (stereo not drawn) [Example 1BD]
Ki ([1]; Table 1a, read-out: Ki): 10 to 1000 nM

C=CCN1C(=O)N(CC=C(C)C)C(Cc2ccccc2)C(O)C(O)C1Cc1ccccc1 (stereo not drawn) [Example 1AT]
Ki ([1]; Table 1a, read-out: Ki): < 10 nM

CC(C)=CCCC(C)=CCN1C(=O)N(CC=C(C)CCC=C(C)C)C(Cc2ccccc2)C(O)C(O)C1Cc1ccccc1 (stereo not drawn) [Example 1K]
Ki ([1]; Table 1a, read-out: Ki): > 1000 nM

O=C1N(CC2CC2)C(Cc2ccc([N+](=O)[O-])cc2)C(O)C(O)C(Cc2ccc([N+](=O)[O-])cc2)N1CC1CC1 (stereo not drawn) [Example 20B]
melting point: 227.5 °C
Ki ([2]; read-out: HPLC Ki, Table 2i): < 10 nM
IC90 ([3]; Human immunodeficiency virus 1, MT2, Table 2i): < 10 µg/mL

O=C(O)c1cccc(CN2C(=O)N(Cc3ccc(CO)cc3)C(Cc3ccccc3)C(O)C(O)C2Cc2ccccc2)c1 (stereo not drawn) [15WR]
melting point: 130 to 132 °C
Ki [2, 4]: < 10 nM
IC90 [3, 5]: < 10 µg/mL

CC(C)NC(=O)c1cccc(CN2C(=O)N(Cc3cccc(C(=O)O)c3)C(Cc3ccccc3)C(O)C(O)C2Cc2ccccc2)c1 (stereo not drawn) [15WN]
melting point: 164 to 167 °C
Ki [2, 4]: < 10 nM
IC90 [3, 5]: < 10 µg/mL

CC(=O)c1cccc(CN2C(=O)N(Cc3cccc(C(C)=O)c3)C(Cc3ccccc3)C(O)C(O)C2Cc2ccccc2)c1 (stereo not drawn) [Example 9P]
melting point: 158 to 159 °C
Ki [2, 4]: 10 to 1000 nM
IC90 [3, 5]: < 10 µg/mL

O=C1N(Cc2ccc3[nH]ccc3c2)C(Cc2ccccc2)C(O)C(O)C(Cc2ccccc2)N1Cc1ccc2[nH]ccc2c1 (stereo not drawn) [15DE]
melting point: 170 °C (dec.)
Ki [2, 6]: < 10 nM
IC90 [3, 7]: < 10 µg/mL

Nc1cccc(CN2C(=O)N(Cc3cccc(O)c3)C(Cc3ccccc3)C(O)C(O)C2Cc2ccccc2)c1 (stereo not drawn) [11Q]
melting point: 116 to 120 °C
Ki [2, 4]: < 10 nM
IC90 [3, 5]: < 10 µg/mL

O=C1N(Cc2ccc(CO)cc2)C(Cc2ccccc2)C(O)C(O)C(Cc2ccccc2)N1Cc1cccc([N+](=O)[O-])c1 (stereo not drawn) [15J]
melting point: 92 °C
Ki [2, 4]: < 10 nM
IC90 [3, 5]: < 10 µg/mL

O=C1N(Cc2ccc3[nH]ncc3c2)C(Cc2ccccc2)C(O)C(O)C(Cc2ccccc2)N1Cc1ccc2[nH]ncc2c1 (stereo not drawn) [15CX]
melting point: 165 to 170 °C
Ki [2, 6]: < 10 nM
IC90 [3, 7]: < 10 µg/mL

COC(=O)Oc1cccc(CN2C(=O)N(Cc3cccc(OC(=O)OC)c3)C(Cc3ccccc3)C(O)C(O)C2Cc2ccccc2)c1 (stereo not drawn) [Example 9G]
melting point: 146 to 147 °C
Ki [2, 4]: 10 to 1000 nM
IC90 [3, 5]: < 10 µg/mL

O=C1N(Cc2cccc(C=NO)c2)C(Cc2ccccc2)C(O)C(O)C(Cc2ccccc2)N1Cc1cccc(CNO)c1 (stereo not drawn) [Example 9A]
melting point: 214 to 216 °C
Ki [2, 4]: 10 to 1000 nM
IC90 [3, 5]: < 10 µg/mL
